Experimental data from ChEMBL document CHEMBL1201862, “PubChem BioAssay data set” (2004).
Activity calls are given as the source filed them.

Key:
[1] = target: UDP-galactopyranose mutase (Mycobacterium tuberculosis, UniProt P9WIQ1); assay: Inhibitors of Mycobacterium tuberculosis UDP-galactopyranose mutase (UGM) enzyme Measured in Biochemical System Using Plate Reader - 2105-02_Inhibitor_Dose_CherryPick_Activity. [Related pubchem assays (depositor defined):AID504439]
[2] = NIH-3T3 fibroblast cytotoxicity, dose response, cytotoxicity control, cell-based, fluorescence, Alamar Blue, secondary assay (AID 2327); assay type: functional;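 further: NIH-3T3 mouse fibroblasts cultured with fluconazole at 8 µg/mL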
[3] = fluconazole-exposed Candida albicans growth modulators – fluorescence, retest, confirmation (AID 2467); assay type: functional, cell-based
[4] = target: T1, Serine/threonine-protein phosphatase (Candida dubliniensis (strain CD36 / CBS 7987 / NCPF 3949 / NRRLY-17841) (Yeast), UniProt B9W6M3); assay: blockers of CaCl2-induced CDRE-lacZ signaling – S. cerevisiae, luminescence, secondary, dose response (AID 2388); assay type: functional, cell-based;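 further: yeast reporter cells carrying a calcineurin-responsive lacZ construct stimulated with calcium chloride; luminescent beta-galactosidase reporter signal in whole cells rather than isolated phosphatase activity; potency for inhibition where a drop in reporter signal means calcineurin blockade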
T1 sequence (B9W6M3 whole entry): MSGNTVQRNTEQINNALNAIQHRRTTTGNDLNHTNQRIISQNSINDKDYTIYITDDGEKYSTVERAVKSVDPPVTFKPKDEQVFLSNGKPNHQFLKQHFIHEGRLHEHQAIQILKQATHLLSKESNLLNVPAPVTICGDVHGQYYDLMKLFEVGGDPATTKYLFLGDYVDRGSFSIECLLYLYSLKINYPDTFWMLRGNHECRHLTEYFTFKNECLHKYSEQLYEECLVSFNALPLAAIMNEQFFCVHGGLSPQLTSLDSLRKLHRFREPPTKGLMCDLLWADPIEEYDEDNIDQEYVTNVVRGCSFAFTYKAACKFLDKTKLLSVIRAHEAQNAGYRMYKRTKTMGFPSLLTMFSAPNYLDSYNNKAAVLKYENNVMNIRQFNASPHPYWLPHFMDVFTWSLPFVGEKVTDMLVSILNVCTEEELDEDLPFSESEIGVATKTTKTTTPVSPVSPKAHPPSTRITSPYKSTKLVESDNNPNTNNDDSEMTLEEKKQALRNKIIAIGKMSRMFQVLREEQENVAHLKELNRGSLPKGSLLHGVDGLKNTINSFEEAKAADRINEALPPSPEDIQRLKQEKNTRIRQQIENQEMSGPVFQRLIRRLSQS

ORF 73 = ORF 73 (Human herpesvirus 8, UniProt O40947); assay: KSHV LANA DNA-binding disruption – biochemical, fluorescence polarization, cherry-picked samples, dose response (AID 504725); set-up: species or system Human gammaherpesvirus 8;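 further: fluorescence polarization of a labeled DNA duplex reporting LANA DNA binding; potency is for inhibitors that block LANA binding to the DNA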
[5] = target: ATP-dependent molecular chaperone HSP82 (Candida albicans (strain WO-1) (Yeast), UniProt C4YTQ8); assay: steroid-induced GRE reporter decrease in yeast – S. cerevisiae, luminescence, Hsp90 inhibitor project, dose response (AID 2400); assay type: functional, cell-based;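 further: beta-galactosidase luminescence from glucocorticoid response element reporter as proxy for Hsp90 function; inhibitor potency where signal loss means Hsp90 inhibition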
[6] = target: T2, COUP transcription factor 2 (Homo sapiens, UniProt P24468); assay: Luminescence-based cell-based high throughput dose response assay to identify inhibitors of COUP-TFII (NR2F2).; assay type: functional;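 further: HEK293 cells transiently cotransfected with COUP-TFII expression vector and reporter; luciferase reporter luminescence driven by COUP-TFII from the pX2-168 reporter plasmid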
T2 sequence (P24468 whole entry): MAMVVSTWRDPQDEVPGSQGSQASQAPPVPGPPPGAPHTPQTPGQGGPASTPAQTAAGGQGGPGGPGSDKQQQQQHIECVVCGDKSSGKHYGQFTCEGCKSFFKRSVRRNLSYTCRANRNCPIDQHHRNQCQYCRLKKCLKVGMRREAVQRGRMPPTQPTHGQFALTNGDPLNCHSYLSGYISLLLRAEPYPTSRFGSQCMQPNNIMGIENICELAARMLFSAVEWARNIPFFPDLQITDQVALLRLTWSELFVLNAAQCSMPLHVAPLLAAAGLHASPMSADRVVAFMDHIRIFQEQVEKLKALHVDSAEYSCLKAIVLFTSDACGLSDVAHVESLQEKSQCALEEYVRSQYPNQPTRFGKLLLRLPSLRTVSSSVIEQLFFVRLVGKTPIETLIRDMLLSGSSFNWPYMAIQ

[7] = HEK-293T viability loss, compound-treated – cell-based, uHTS hits, cytotoxicity control for B/T-cell NF-kB inhibitor project, dose response (AID 489019); assay type: functional;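 further: IC50 reflects cytotoxicity as loss of cell viability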
Jurkat [8] = assay: blockers of NF-kB activation in T cells – Jurkat, luciferase reporter, luminescence, B- and T-cell, dose response (AID 489004); assay type: functional, cell-based; conditions: Homo sapiens;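 further: NF-kB luciferase reporter Jurkat cells stimulated with PMA plus ionomycin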
[9] = alpha-synuclein stem-loop luciferase translation blockers – H4 neuroglioma cells, luminescence, confirmation (AID 1988); assay type: functional, cell-based
[10] = luciferase reporter signal suppression in cells – H4 neuroglioma cells, luminescence, dose response (AID 1990); assay type: functional, cell-based
[11] = Luminescence Cell-Based Dose Response HTS to Identify Inhibitors of 5'UTR Stem-Loop Driven Prion Protein mRNA Translation in H4 Neuroglioblastoma Cells. [Related pubchem assays: 1827 (Project Summary), 1813 (Primary HTS)]; assay type: functional
[12] = target: T3, Heat shock factor protein 1 (Mus musculus, UniProt P38532); assay: decrease of HSF1-responsive luciferase luminescence – cell-based, NIH3T3, dose retest, confirmation (AID 2382); assay type: functional;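 further: NIH3T3 fibroblasts with HSF1-driven luciferase reporter stressed by proteasome inhibitor MG132; luminescence from HSF1-driven luciferase expression after 8 hours of MG132 stress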
T3 sequence (P38532 whole entry): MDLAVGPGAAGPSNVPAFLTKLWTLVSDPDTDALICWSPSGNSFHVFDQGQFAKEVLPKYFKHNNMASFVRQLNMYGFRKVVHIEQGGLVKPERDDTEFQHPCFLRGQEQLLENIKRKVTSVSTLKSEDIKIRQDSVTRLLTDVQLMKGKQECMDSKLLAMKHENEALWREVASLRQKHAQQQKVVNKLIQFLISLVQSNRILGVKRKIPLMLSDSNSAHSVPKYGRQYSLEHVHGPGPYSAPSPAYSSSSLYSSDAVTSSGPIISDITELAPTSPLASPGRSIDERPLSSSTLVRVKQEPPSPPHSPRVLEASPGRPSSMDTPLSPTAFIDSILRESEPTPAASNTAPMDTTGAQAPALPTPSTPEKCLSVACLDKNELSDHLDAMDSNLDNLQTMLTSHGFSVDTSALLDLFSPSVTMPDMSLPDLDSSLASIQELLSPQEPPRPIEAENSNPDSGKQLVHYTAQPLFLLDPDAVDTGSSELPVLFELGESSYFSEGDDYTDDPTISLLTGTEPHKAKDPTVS

CAAX prenyl protease 2 [13] = target: CAAX prenyl protease 2 (Saccharomyces cerevisiae S288c, UniProt Q03530); assay type: biochemical
CAAX prenyl protease 1 = CAAX prenyl protease 1 (Saccharomyces cerevisiae S288c, UniProt P47154); assay: yeast CAAX protease Ste24 inhibition – biochemical, S. cerevisiae, plate reader, cherry-pick, dose response (AID 488815)
Prothrombin = Prothrombin (Homo sapiens, UniProt P00734); assay: Thrombin 1536 HTS Dose Response Confirmation. [Related pubchem assays: 1046 (Thrombin 1536 HTS; hits were confirmed in this assay)]; assay type: functional
CAAX prenyl protease 2 [14] = target: T4, CAAX prenyl protease 2 (Homo sapiens, UniProt Q9Y256); assay: inhibition of Ras-converting CAAX protease Rce1 – biochemical, yeast membranes, quenched-peptide fluorescence, cherry-pick, dose response (AID 588849)
T4 sequence (Q9Y256 whole entry): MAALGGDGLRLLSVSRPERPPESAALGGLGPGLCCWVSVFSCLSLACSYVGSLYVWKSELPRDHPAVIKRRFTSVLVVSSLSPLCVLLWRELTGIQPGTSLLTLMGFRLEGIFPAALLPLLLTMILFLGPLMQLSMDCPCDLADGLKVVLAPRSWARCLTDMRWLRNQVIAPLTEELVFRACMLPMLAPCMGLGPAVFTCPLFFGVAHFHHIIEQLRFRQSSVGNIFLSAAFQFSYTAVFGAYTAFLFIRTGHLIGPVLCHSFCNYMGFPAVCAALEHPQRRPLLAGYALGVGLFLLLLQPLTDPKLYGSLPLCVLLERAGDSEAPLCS

HEK293 [15] = assay: HEK293T cell viability loss, resazurin readout – resazurin fluorescence, cytotoxicity control for NF-kB activator project, SAR follow-up (AID 493251); assay type: functional, cell-based; conditions: Homo sapiens
HEK293 [16] = assay: SAR Analysis of small molecule inhibitors of T-cell specific antigen receptor-induced NF-kB activation in a HEK-293T cell line using a luminescence assay - Set 2. [Related pubchem assays (depositor defined):AID435003, AID435012, AID489026]; assay type: functional, cell-based; conditions: Homo sapiens
Jurkat [17] = assay: SAR Analysis of small molecule inhibitors of T-cell specific antigen receptor-induced NF-kB activation in a Jurkat cell line using a luminescence assay - Set 2. [Related pubchem assays (depositor defined):AID435003, AID435012, AID465]; assay type: functional, cell-based; conditions: Homo sapiens
Estrogen receptor beta [18] = target: T5, Estrogen receptor beta (Homo sapiens, UniProt Q92731);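 further: recombinant ER-beta bound to coactivator SRC1 peptide in presence of estradiol agonist; inhibitors block coactivator peptide binding and lower the FRET signal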
[19] = target: T6, RNA-binding protein pos-1 (Caenorhabditis elegans, UniProt G5EF15); assay: disruptors of C. elegans POS-1 RNA interaction – biochemical, fluorescence polarization, dose response (AID 1964);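 further: purified POS-1 fused to maltose binding protein made in E. coli; potency of compounds blocking POS-1 binding to fluorescent RNA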
T6 sequence (G5EF15 whole entry): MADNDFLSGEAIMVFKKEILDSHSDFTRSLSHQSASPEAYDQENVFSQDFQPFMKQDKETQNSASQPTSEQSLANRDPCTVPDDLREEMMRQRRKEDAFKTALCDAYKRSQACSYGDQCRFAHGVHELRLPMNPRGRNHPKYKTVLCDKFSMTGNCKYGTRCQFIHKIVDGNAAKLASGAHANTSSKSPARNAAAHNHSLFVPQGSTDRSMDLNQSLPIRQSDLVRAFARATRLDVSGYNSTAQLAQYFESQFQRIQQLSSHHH

[20] = target: T7, Zinc finger protein mex-5 (Caenorhabditis elegans, UniProt Q9XUB2); assay: potency of MEX-5 RNA-binding blockers – biochemical, C. elegans, fluorescence polarization, dose response (AID 1960)
T7 sequence (Q9XUB2 whole entry): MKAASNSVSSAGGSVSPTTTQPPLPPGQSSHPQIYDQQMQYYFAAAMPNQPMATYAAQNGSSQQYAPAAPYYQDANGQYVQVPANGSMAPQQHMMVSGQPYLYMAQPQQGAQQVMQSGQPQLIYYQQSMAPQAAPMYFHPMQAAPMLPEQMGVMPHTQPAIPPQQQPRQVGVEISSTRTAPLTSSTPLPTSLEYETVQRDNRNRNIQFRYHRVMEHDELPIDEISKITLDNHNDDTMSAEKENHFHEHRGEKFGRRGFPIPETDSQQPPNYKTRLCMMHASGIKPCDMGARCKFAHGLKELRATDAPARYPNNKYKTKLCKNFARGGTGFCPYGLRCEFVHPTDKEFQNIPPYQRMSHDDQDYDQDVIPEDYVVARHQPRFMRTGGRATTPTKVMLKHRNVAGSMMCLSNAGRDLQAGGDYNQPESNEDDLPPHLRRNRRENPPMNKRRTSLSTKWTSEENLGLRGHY

Estrogen receptor beta [21] = target: T5, Estrogen receptor beta; assay: blockers of SRC-3 recruitment to ERβ – biochemical, ELISA, streptavidin-HRP readout, orthogonal assay, confirmation (AID 1060)
Troponin, cardiac muscle = Troponin, cardiac muscle (Homo sapiens, UniProt P19429+P45379+P63316); assay: Fluorescence-based biochemical high throughput dose response assay for activators of the calcium sensitivity of cardiac Regulated Thin Filaments (RTF). [Related pubchem assays (depositor defined):AID493008, AID493018, AID504382, AID504383]; assay type: protein-complex assay
Estrogen receptor = target: T8, Estrogen receptor (Homo sapiens, UniProt P03372);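 further: potency for inhibiting coactivator peptide recruitment to the receptor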
T8 sequence (P03372 whole entry): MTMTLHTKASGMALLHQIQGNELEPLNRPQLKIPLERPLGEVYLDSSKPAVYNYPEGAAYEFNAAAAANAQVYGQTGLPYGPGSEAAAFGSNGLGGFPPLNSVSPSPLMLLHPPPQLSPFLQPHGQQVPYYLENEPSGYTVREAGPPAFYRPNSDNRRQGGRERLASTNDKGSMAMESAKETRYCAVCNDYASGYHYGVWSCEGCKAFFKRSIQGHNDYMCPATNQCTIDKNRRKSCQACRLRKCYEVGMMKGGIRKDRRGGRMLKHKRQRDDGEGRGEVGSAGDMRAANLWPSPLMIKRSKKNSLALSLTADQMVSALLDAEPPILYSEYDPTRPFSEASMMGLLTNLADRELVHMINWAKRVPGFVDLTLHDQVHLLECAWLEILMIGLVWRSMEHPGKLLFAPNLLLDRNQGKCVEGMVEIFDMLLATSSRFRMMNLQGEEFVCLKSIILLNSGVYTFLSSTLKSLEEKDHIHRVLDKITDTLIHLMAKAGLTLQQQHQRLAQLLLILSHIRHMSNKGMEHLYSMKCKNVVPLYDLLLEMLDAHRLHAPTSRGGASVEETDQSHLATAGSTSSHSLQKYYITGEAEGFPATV

T5 sequence (Q92731 whole entry, the tested form may be a part): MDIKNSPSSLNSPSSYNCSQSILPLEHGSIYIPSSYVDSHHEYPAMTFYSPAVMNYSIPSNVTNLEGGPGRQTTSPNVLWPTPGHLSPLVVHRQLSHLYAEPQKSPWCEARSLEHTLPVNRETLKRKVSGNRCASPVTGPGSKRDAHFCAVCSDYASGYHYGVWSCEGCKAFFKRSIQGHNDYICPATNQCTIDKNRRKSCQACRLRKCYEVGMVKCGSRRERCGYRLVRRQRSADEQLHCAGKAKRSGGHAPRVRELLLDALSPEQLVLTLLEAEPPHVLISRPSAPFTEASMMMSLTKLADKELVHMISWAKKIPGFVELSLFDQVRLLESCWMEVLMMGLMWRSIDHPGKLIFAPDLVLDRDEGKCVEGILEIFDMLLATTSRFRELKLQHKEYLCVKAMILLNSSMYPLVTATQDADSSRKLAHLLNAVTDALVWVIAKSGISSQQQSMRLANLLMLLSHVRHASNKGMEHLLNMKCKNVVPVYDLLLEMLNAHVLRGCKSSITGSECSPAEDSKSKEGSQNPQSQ
CAAX prenyl protease 1, sequence (P47154 whole entry): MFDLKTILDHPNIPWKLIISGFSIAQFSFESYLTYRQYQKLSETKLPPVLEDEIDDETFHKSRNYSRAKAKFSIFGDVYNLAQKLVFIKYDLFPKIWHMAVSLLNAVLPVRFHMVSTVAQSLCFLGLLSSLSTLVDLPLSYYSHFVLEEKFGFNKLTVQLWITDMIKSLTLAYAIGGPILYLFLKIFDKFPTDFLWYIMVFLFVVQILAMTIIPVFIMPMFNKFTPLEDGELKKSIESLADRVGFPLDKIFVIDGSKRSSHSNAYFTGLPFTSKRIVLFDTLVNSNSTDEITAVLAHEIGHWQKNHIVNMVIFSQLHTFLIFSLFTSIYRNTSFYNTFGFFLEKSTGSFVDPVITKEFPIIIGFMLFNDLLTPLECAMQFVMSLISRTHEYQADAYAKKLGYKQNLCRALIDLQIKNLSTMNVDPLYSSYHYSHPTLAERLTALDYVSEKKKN
UDP-galactopyranose mutase, sequence (P9WIQ1 whole entry): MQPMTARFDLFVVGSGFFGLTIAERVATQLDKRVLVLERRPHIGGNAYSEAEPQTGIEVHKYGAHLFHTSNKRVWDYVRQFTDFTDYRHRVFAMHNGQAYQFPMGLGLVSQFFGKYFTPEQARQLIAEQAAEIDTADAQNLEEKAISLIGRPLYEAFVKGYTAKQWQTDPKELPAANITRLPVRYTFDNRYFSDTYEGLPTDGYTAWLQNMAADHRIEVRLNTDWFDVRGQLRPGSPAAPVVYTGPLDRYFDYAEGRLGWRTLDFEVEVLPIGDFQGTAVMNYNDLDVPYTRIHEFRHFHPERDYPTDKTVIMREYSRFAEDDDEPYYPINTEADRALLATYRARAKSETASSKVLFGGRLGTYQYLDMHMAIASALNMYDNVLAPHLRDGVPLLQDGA
CAAX prenyl protease 2 (Saccharomyces cerevisiae S288c, UniProt Q03530), sequence (Q03530 whole entry): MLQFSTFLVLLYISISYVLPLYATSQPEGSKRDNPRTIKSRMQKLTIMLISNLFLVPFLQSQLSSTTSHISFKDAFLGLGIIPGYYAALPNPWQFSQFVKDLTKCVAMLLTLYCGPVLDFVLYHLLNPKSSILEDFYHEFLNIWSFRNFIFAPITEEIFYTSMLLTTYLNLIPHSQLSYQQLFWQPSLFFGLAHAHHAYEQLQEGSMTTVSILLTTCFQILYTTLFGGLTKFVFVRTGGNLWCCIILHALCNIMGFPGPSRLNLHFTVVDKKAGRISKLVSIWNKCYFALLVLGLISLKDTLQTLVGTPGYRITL
ORF 73, sequence (O40947 whole entry): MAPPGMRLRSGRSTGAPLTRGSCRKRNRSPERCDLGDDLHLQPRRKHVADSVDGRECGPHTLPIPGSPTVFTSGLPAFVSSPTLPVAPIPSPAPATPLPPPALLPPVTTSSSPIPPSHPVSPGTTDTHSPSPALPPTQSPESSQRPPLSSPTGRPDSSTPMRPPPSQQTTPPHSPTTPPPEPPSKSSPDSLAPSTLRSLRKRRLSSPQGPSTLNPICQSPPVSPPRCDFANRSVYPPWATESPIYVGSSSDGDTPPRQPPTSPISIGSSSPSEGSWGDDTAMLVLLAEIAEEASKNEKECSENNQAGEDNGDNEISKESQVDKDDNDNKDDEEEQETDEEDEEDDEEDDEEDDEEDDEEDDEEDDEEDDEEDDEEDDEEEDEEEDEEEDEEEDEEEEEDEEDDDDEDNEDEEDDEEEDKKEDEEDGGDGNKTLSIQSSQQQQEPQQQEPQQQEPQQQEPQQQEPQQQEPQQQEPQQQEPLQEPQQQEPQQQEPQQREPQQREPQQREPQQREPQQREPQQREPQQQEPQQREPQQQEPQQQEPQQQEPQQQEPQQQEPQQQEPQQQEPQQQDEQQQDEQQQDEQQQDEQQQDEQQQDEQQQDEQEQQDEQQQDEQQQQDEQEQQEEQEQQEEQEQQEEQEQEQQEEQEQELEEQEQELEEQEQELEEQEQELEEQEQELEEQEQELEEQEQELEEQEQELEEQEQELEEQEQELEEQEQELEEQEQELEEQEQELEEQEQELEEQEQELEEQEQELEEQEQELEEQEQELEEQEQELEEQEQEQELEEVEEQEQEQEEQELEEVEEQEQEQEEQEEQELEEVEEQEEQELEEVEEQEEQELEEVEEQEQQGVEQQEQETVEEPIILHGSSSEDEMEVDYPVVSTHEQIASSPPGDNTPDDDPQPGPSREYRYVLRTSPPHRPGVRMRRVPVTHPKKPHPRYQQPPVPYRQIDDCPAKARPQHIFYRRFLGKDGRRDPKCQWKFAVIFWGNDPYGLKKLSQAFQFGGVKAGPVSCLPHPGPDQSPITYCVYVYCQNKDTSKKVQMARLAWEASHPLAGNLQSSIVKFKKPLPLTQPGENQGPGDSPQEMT
ATP-dependent molecular chaperone HSP82, sequence (C4YTQ8 whole entry): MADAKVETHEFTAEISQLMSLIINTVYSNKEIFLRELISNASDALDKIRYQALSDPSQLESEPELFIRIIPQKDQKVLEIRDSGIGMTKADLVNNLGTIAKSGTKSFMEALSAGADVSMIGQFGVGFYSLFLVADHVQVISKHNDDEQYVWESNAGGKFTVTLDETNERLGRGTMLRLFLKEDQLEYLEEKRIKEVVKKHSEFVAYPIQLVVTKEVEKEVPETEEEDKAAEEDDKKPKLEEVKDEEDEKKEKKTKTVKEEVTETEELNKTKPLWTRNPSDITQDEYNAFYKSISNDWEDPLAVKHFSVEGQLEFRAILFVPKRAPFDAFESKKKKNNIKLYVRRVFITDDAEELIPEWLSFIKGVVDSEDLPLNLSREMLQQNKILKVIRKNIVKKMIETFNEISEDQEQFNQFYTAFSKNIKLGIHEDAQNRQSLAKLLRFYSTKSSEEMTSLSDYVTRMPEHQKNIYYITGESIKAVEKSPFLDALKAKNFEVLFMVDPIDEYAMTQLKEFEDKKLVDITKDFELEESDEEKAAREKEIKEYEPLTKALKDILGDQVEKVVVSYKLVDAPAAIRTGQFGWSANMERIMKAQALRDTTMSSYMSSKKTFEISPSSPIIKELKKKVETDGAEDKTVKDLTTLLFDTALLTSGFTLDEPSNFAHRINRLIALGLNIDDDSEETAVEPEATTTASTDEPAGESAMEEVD

CCN(CC)c1ccc2cc(S(=O)(=O)c3ccc(C)cc3)c(=O)oc2c1
AC50 [1]: 63.4 µM (active) | EC50 [2]: 25.2 µM (active) | EC50 [3]: 203 nM (active) | EC50 [4]: > 180 µM (inactive) | AC50 (ORF 73): 18.4 µM (active) | EC50 [5]: 21.9 µM (active)

COc1ccc(NS(=O)(=O)c2cccc(NC(=O)c3ccc(Cl)nc3)c2)cc1
IC50 [6]: 3.21 µM (active) | IC50 [7]: > 80 µM (inactive) | IC50 (Jurkat [8]): 38.2 µM (inactive)

Cc1ccc(C(=O)Nc2cccc(C(F)(F)F)c2)cc1NC(=O)c1ccno1
EC50 [9]: 285 nM (active) | EC50 [10]: < 100 nM (active) | EC50 [11]: 6.47 µM (active) | EC50 [12]: 333 nM (active) | IC50 [7]: > 80 µM (inactive) | IC50 (Jurkat [8]): > 80 µM (inactive)

COc1ccc(C2c3c(ncn(CCCO)c3=N)Oc3ccc4ccccc4c32)cc1 (centres undefined)
AC50 (CAAX prenyl protease 2 [13]): 5.6 µM (active) | AC50 (CAAX prenyl protease 1): 8.82 µM (active)

CCOC(=O)C1=C(C)OC(N)=C(C#N)C1c1cc2c(cc1[N+](=O)[O-])OCO2 (centres undefined)
IC50 (Prothrombin): 915 nM (active) | AC50 (CAAX prenyl protease 1): 5.61 µM (active) | AC50 (CAAX prenyl protease 2 [14]): 13.2 µM (active)

CCCCC(=O)NC(c1ccc(C)cc1)c1ccc2cccnc2c1O (centres undefined)
IC50 (HEK293 [15]): 26.1 µM (inactive) | IC50 (HEK293 [16]): 2.78 µM (active) | IC50 (Jurkat [17]): 2.65 µM (active)

CC(=O)Nc1ccc(/N=C/c2nc(-c3ccc(C)cc3)oc2O)cc1
IC50 (Estrogen receptor beta [18]): > 50 µM (not active) | EC50 [19]: > 300 µM (not active) | EC50 [20]: > 300 µM (inconclusive) | IC50 (Estrogen receptor beta [21]): 21.6 µM (not active) | EC50 (Troponin, cardiac muscle): 11.6 µM (inactive) | IC50 (Estrogen receptor): 8.2 µM (active)
